Laboratory results: US20240308960A1 (Sumitomo Pharma Co., Ltd., priority 2021, published 2024)

These compounds were tested against T1, Human orexin receptor type 2 (Homo sapiens, UniProt O43614) (assay: Test Example 1: agonist activity for orexin receptor type 2 (aequorin luminescence, intracellular calcium mobilization)). Conditions: compound 10 μm; CHO cells transiently expressing human orexin receptor type 2 and apoaequorin; relative percentage of luminescence for the luminescence (100%) of Orexin A (100 μM).
T1 sequence (O43614 1-444): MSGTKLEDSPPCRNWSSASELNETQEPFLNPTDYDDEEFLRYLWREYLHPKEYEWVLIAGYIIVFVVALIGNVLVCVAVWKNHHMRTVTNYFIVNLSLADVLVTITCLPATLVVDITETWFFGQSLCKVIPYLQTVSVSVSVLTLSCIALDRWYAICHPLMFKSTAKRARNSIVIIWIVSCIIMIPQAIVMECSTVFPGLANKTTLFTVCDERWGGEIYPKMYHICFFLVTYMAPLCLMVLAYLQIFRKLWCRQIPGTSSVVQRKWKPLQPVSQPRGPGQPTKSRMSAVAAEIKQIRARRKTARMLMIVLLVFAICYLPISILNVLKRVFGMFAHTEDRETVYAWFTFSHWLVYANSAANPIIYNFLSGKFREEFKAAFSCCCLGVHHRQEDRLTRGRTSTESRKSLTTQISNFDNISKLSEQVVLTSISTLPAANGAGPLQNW

First: CC(C)N1C2CCC1CN(c1cccc(F)c1NC(=O)N1CCC(C)(c3noc(C4CC4)n3)CC1)C2 [Example 155, 4-(5-cyclopropyl-1,2,4-oxadiazol-3-yl)-N-{2-fluoro-6-[8-(propan-2-yl)-3,8-diazabicyclo[3.2.1]octan-3-yl]phenyl}-4-methylpiperidine-1-carboxamide]
Second: CCN1C[C@@H]2C[C@H]1CN2c1cccc(F)c1NC(=O)N1CCC(C)(c2noc(C3CC3)n2)CC1 [Example 149, 4-(5-cyclopropyl-1,2,4-oxadiazol-3-yl)-N-{2-[(1S,4S)-5-ethyl-2,5-diazabicyclo[2.2.1]heptan-2-yl]-6-fluorophenyl}-4-methylpiperidine-1-carboxamide]
The “Agonist Activity (%)” value of the first is lower: 55% for the first, 146% for the second.

First: CC(C)N1CCN(c2cccc(Cl)c2NC(=O)N2CCC(C)(c3noc(C4CC4)n3)CC2)CC1 [Example 67, N-{2-chloro-6-[4-(propan-2-yl)piperazin-1-yl]phenyl}-4-(5-cyclopropyl-1,2,4-oxadiazol-3-yl)-4-methylpiperidine-1-carboxamide]
Second: CC(C)N1CCN(c2cccc(Cl)c2NC(=O)N2CCC(C)(c3noc(CC4CC4)n3)CC2)CC1 [Example 105, N-{2-chloro-6-[4-(propan-2-yl)piperazin-1-yl]phenyl}-4-[5-(cyclopropylmethyl)-1,2,4-oxadiazol-3-yl]-4-methylpiperidine-1-carboxamide]
The “Agonist Activity (%)” value of the first is lower: 154% for the first, 165% for the second.

Compared with `COc1cccc(N2CCN(C(C)C)CC2)c1NC(=O)N1CCC(c2ccc(OC(F)(F)F)cc2)CC1` [Example 16, N-{2-methoxy-6-[4-(propan-2-yl)piperazin-1-yl]phenyl}-4-[4-(trifluoromethoxy)phenyl]piperidine-1-carboxamide], `COC(=O)c1cccc(N2CCN(C(C)C)CC2)c1NC(=O)N1CCC(c2ccc(C)cc2)CC1` [Example 38, methyl 2-{[4-(4-methylphenyl)piperidine-1-carbonyl]amino}-3-[4-(propan-2-yl)piperazin-1-yl]benzoate] is higher in “Agonist Activity (%)” value: 82% for the first, 119% for the second.

Going from `Cc1noc(C2(C)CCN(C(=O)Nc3ccccc3N3CCN(C(C)C)CC3)CC2)n1` [Example 162, 4-Methyl-4-(3-methyl-1,2,4-oxadiazol-5-yl)-N-{2-[4-(propan-2-yl)piperazin-1-yl]phenyl}piperidine-1-carboxamide] to `CCc1nc(C2(C)CCN(C(=O)Nc3c(F)cccc3N3CCN(C(C)C)CC3)CC2)no1` [Example 82, 4-(5-ethyl-1,2,4-oxadiazol-3-yl)-N-{2-fluoro-6-[4-(propan-2-yl)piperazin-1-yl]phenyl}-4-methylpiperidine-1-carboxamide], the “Agonist Activity (%)” value rises from 100% to 156%.

Compared with `CC(C)N1CCN(c2cccc(Cl)c2NC(=O)N2CCc3ccccc3CC2)CC1` [Example 97, N-{2-chloro-6-[4-(propan-2-yl)piperazin-1-yl]phenyl}-1,2,4,5-tetrahydro-3H-3-benzazepine-3-carboxamide], `CCN1CCN(c2ccccc2NC(=O)N2CCC(C)(c3ccccc3)CC2)CC1.Cl` [Example 4, N-[2-(4-ethylpiperazin-1-yl)phenyl]-4-methyl-4-phenylpiperidine-1-carboxamide hydrochloride] is higher in “Agonist Activity (%)” value: 69% for the first, 125% for the second.

Compared with `Cc1ccc(C2CCN(C(=O)Nc3c(F)cccc3N3CC4CCC(C3)N4C(C)C)CC2)cc1` [Example 154, N-{2-fluoro-6-[8-(propan-2-yl)-3,8-diazabicyclo[3.2.1]octan-3-yl]phenyl}-4-(4-methylphenyl)piperidine-1-carboxamide], `Cc1ccc(C2CCN(C(=O)Nc3ccccc3C3CCN(C(C)C)CC3)CC2)cc1.Cl` [Example 31, 4-(4-methylphenyl)-N-{2-[1-(propan-2-yl)piperidin-4-yl]phenyl}piperidine-1-carboxamide hydrochloride] is higher in “Agonist Activity (%)” value: 40% for the first, 164% for the second.

First: CC(C)N1CC=C(c2cccc(Cl)c2NC(=O)N2CCC(C)(c3cc(C4CC4)on3)CC2)CC1 [Example 144, N-{2-chloro-6-[1-(propan-2-yl)-1,2,3,6-tetrahydropyridin-4-yl]phenyl}-4-(5-cyclopropyl-1,2-oxazol-3-yl)-4-methylpiperidine-1-carboxamide]
Second: CC(CF)N1CC=C(c2cccc(Cl)c2NC(=O)N2CCC(C)(c3noc(C4CC4)n3)CC2)CC1 (centres unmarked) [Example 142, N-{2-chloro-6-[1-(1-fluoropropan-2-yl)-1,2,3,6-tetrahydropyridin-4-yl]phenyl}-4-(5-cyclopropyl-1,2,4-oxadiazol-3-yl)-4-methylpiperidine-1-carboxamide]
The “Agonist Activity (%)” value of the first is higher: 143% for the first, 130% for the second.

Going from `CCN1CCN(c2ccccc2NC(=O)N2CCC(c3cc(OC)cc(OC)c3)CC2)CC1` [Example 3, 4-(3,5-dimethoxyphenyl)-N-[2-(4-ethylpiperazin-1-yl)phenyl]piperidine-1-carboxamide] to `CCCN1CCCN(c2ccccc2NC(=O)N2CCC(C)(c3noc(C4CC4)n3)CC2)CC1` [Example 157, 4-(5-cyclopropyl-1,2,4-oxadiazol-3-yl)-4-methyl-N-[2-(4-propyl-1,4-diazepan-1-yl)phenyl]piperidine-1-carboxamide], the “Agonist Activity (%)” value rises from 27% to 94%.

First: CC(C)[C@H]1CO[C@H](c2cccc(Cl)c2NC(=O)N2CCC(C)(c3noc(C4CC4)n3)CC2)CN1 (racemic) [Example 167, Rac-N-{2-chloro-6-[(2R,5S)-5-(propan-2-yl)morpholin-2-yl]phenyl}-4-(5-cyclopropyl-1,2,4-oxadiazol-13-yl)-4-methylpiperidine-1-carboxamide]
Second: CC1(c2cc(C3CC3)on2)CCN(C(=O)Nc2c(F)cccc2-c2ccc(C(F)(F)F)nc2)CC1.Cl [Example 71, 4-(5-cyclopropyl-1,2-oxazol-3-yl)-N-{2-fluoro-6-[6-(trifluoromethyl)pyridin-3-yl]phenyl}-4-mehylpiperidine-1-carboxamide hydrochloride]
The “Agonist Activity (%)” value of the first is higher: 183% for the first, 88% for the second.

These compounds were tested against T1, Human orexin receptor type 2 (assay: Test Example 2: agonist activity for orexin receptor type 2 (aequorin luminescence, intracellular calcium mobilization)). Conditions: compound 10 μm; CHO cells transiently expressing human orexin receptor type 2 and apoaequorin; relative percentage of luminescence for the luminescence (100%) of Orexin A (100 pM).
Type: cell-based
Design: expressed in transfected cells; host or cells: CHO cells (transient expression)
Protocol: Test Example 2: Measurement of Agonist Activity for Orexin Receptor 2 Type
Human orexin receptor type 2 and apoaequorin were transiently expressed in CHO cells, and the agonist activity was evaluated based on intracellular calcium mobilization with ligand stimulation. The CHO cells transiently-expressed human orexin receptor type 2 and apoaequorin were seeded on a 384-well plate by 2,000 cells/well, and then incubated for 16-22 hours. After the plate was returned to room temperature, Coelenterazine hcp (final concentration: 1 μM) was added to the plate, and the plate was allowed to stand at room temperature for 2 hours. And then, Orexin A (PEPTIDE INSTITUTE, INC., Lot. 671009) or each test compound was added to the plate, and the luminescence of the cells was measured with FDSS7000 (Hamamatsu Photonics K. K.), wherein Orexin A and each test compound were dissolved in DMSO (final concentration: 0.1%), and diluted with a buffer (Hanks, 20 mM HEPES, 0.1% BSA).

Compared with `CC(C)N1CCN(c2cccc(Cl)c2NC(=O)N2C[C@H]3C[C@H](c4noc(C5CC5)n4)C[C@H]3C2)CC1` [Example 169, (3aR,5s,6aS)-N-{2-chloro-6-[4-(propan-2-yl)piperazin-1-yl]phenyl}-5-(5-cyclopropyl-1,2,4-oxadiazol-13-yl) hexahydrocyclopenta [c]pyrrol-2 (1H)-carboxamide], `CC(C)N1CCN(c2cccc(Cl)c2NC(=O)N2C[C@H]3C[C@@H](c4noc(C5CC5)n4)C[C@H]3C2)CC1` [Example 170, (3aR,5r,6aS)-N-{2-chloro-6-[4-(propan-2-yl)piperazin-1-yl]phenyl}-5-(5-cyclopropyl-1,2,4-oxadiazol-13-yl) hexahydrocyclopenta [c]pyrrol-2 (1H)-carboxamide] is lower in “Agonist Activity (%)” value: 444% for the first, 357% for the second.
